The values that follow come from article PMC6748986, “Potent modulation of the CepR quorum sensing receptor and virulence in a Burkholderia cepacia complex member using non-native lactone ligands” (Scientific Reports, 2019).

Molecules are shown by their SMILES. Like-named read-outs stand apart in the source and are kept apart here.

Experiment [1] deals with T1, CepR (Burkholderia multivorans, UniProt Q93PF7).
T1 sequence (Q93PF7 1-239): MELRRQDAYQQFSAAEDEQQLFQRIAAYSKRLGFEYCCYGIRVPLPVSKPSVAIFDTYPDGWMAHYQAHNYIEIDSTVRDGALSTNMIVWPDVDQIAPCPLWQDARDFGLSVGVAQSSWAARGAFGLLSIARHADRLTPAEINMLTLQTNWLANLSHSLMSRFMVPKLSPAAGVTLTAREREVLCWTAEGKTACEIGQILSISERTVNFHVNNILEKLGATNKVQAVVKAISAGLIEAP
Put plainly: CepR agonism in B. multivorans cepI::lacZ reporter (Bm-reporter). The format is cell-based. As to conditions: for activation at 100 µM: read-out: Act%; for Emax: read-out: Maximal Activation (%). From the text:
We next sought to assess if the CepR modulators identified in the Ec-reporter maintained their activities in a member of the Bcc. For these studies, we generated a B. multivorans cepI::lacZ reporter organism (Bm-reporter) using standard allelic exchange methods (see Methods). Along with B. cenocepacia, B. multivorans is one of the most commonly isolated Bcc members[6],[44]. We note that small molecules must contend with a different cellular environment in the native organism relative to E. coli[48]; however, as both CepR and the cepI promoter are highly conserved among Bcc species (Fig. S3), we reasoned that the majority of compounds identified in the Ec-reporter (containing B. cenocepacia versions of the cepI promoter and the cepR gene) would maintain their relative activity profiles in CepR in B. multivorans. […] Similar to the Ec-reporter, CepR binding to the cepI promoter then induces β-galactosidase production, allowing for the quantitation of CepR activity. Using the Bm-reporter organism, we observed robust activity for CepR in response to C8-AHL (EC50 = 0.7 nM, Table 3).
The B. multivorans cepI::lacZ strain was used to obtain dose-response data for CepR in response to synthetic AHLs. Overnight cultures of B. multivorans cepI::lacZ were grown in LB medium at 37 °C with shaking (225 rpm). Aliquots (200 μL) of a 1:10 dilution of this overnight culture were plated into 96-well plates containing varying concentrations of compound, and then grown for 4 h at 37 °C with shaking (225 rpm). β-galactosidase production was measured as described above for E. coli, with the following changes: permeabilized cells were incubated at 25 °C with substrate CPRG for ~10 min until positive control wells developed a deep red color. For agonism assays, synthetic compound was screened alongside and compared to the native ligand, C8-AHL (100 μM). For antagonism assays, the concentration of native ligand utilized was 5 nM (approximately equal to twice its EC50 value).

In experiment [2] the test system is B. multivorans ATCC17616. Put plainly: Swimming motility assay (0.3% agar). It counts as cell-based. As to conditions: 50 μM compound, 72 h, untreated = 100%. On the procedure: We were interested to assess the effects of our lead CepR modulators on a phenotype under the control of QS in B. multivorans. However, very little work has been reported to directly link CepR activity in B. multivorans to any QS-controlled phenotype. […] Therefore, we chose to study the effects of compound treatment on both the swarming and swimming motility of B. multivorans (B. multivorans ATCC17616; see Methods).
Figure 3 B. multivorans motility assay data. Swimming motility was measured by spotting B. multivorans plus compound indicated in the center of M9 + 0.1% casamino acids + 0.3% agar in a 10 cm diameter petri dish. Area of the colony after 72 h incubation was calculated using ImageJ, normalized to the B. multivorans wild-type + vehicle (DMSO), and listed above each plate shown. TEXT PRINTED IN THE PICTURE: C8-AHL: 182% | E32: 195% | E35: 175% | E37: 173% | DMSO: 100% | A12: 55% | B12: 53% | E3: 58%
The motility assay was based on a previously reported procedure. B. multivorans was grown overnight with 50 μM compound at 37 °C and normalized to OD600 = 0.4, and then cells were washed with sterile water and resuspended with 50 μM fresh compound. Cells (5 μL) were spotted in the center of M9 + 0.1% Casamino Acids + 0.3% agar plates (100 mm diameter). Cells were grown for 72 h at 37 °C. Images were analyzed using ImageJ to calculate the area of the colony and normalized to the area of B. multivorans wild-type + vehicle (DMSO).

Experiment [3] deals with B. multivorans ATCC17616. The experiment is described as follows: C. elegans survival assay, B. multivorans infection. To be noted: C. elegans N2 infected with B. multivorans; for Effect on survival of Bm-infected worms (agonists): 1 μM for agonists, relative to untreated worms; for Effect on survival of Bm-infected worms (antagonists): 50 μM for antagonists. It counts as in vivo. From the text: We next assessed the effects of our lead CepR modulators on exacerbating or alleviating infections by a Bcc member using the nematode C. elegans as a model of pathogenicity. We infected N2 nematodes with B. multivorans ATCC17616 in the presence of compound, and assessed survival of worms over time (see Methods)[13],[35],[53]. None of the compounds tested caused measurable toxicity effects in uninfected worms under these conditions. […] Our results here, using chemical CepR modulators, appear to replicate these effects in B. multivorans nematode infections.
The C. elegans survival assay was based on previously reported procedures[35],[65]. To synchronize worms, eggs were harvested by hypochlorite bleaching (5 min in 1 mL 5% bleach, 0.25 mL 5 M NaOH, 3.75 mL H2O), and grown on Nematode Growth Media (NGM) + E. coli OP50 at 21 °C. B. multivorans was grown overnight with the compound of interest in LB medium (1 μM for agonists, 50 μM for antagonists), and then the overnight culture was centrifuged, resuspended in the assay medium, standardized to OD600 = 0.8, and 25 μL of this culture was used per condition. CFUs of these standardized cultures were used to confirm that bacteria numbers were relatively the same. For the survival assay, synchronized worms (L4 stage) were suspended in liquid NGM media containing bacteria and compound in 96-well plates (100 μL total volume). […] Plates were incubated at 25 °C, after which they were analyzed by a dissecting microscope. The fraction of dead worms was determined by scoring the number of dead worms and the total number of worms in each well. At least 30 nematodes were used for each well, and each assay was performed at least in duplicate on a single day (n ≥ 60). Survival assays were then repeated at least once on different days to verify patterns. Compound effect on worm survival rarely varied between replicates, but the overall worm susceptibility varied among assays. Kaplan-Meier survival curves were calculated using GraphPad Prism (v. 7.0) software.

As usually defined, the EC50 is the midpoint of the concentration-response curve. Turning to `O=C(CCc1ccc([N+](=O)[O-])cc1)N[C@H]1CCOC1=O` [Compound E37], in experiment [1], the EC50 was found to be 0.0025 nM, the activation at 100 µM turned out to be 91% and the Emax came out at 91%. Also, in experiment [1] (Bm-reporter), the “EC50 fold lower than C8-AHL” value was ~ 250 fold. In addition, the “Swimming motility, area of the colony normalized to B. multivorans wild-type + vehicle (DMSO)” value in experiment [2] is given as 173%. Moreover, the “Effect on survival of Bm-infected worms (agonists)” value (“Effect on survival … (agonists)” for short) in experiment [3] is “promoted worm killing”.

For the molecule `CCCCCCCS(=O)(=O)N[C@H]1CCOC1=O` [Compound A12], in experiment [2], the “Swimming motility, area of the colony normalized to B. multivorans wild-type + vehicle (DMSO)” value is on record as 55%.

On to `O=C(CCc1ccc(I)cc1)N[C@H]1CCOC1=O` [Compound E32], for which, in experiment [1], a half-maximal effect (EC50) was put at 0.08 nM, the activation at 100 µM was determined as 110% and the Emax stood at 110%. The “Swimming motility, area of the colony normalized to B. multivorans wild-type + vehicle (DMSO)” value in experiment [2] worked out at 195%.

Regarding `O=C(Cc1cccc(Br)c1)N[C@H]1CCOC1=O` [Compound C8], in experiment [3], the “Effect on survival of Bm-infected worms (antagonists)” value (from here on “Effect on survival … (antagonists)”) is “prolonged nematode survival”.

For `O=C(Cc1cccc(C(F)(F)F)c1)N[C@H]1CCOC1=O` [Compound E3], the activation at 100 µM in experiment [1] was 3.1%. The “Swimming motility, area of the colony normalized to B. multivorans wild-type + vehicle (DMSO)” value in experiment [2] was determined as 58%. Also, in experiment [3], the “Effect on survival … (antagonists)” value is “prolonged nematode survival”.

On to `CCCCCCCC(=O)N[C@H]1CCOC1=O` [Compound C8-AHL, N-octanoyl L-homoserine lactone, reference compound], for which, in experiment [1], it took 0.7 nM to reach a half-maximal effect (EC50), the activation at 100 µM is 100% and the Emax amounted to 100%. For the same molecule, the “Swimming motility, area of the colony normalized to B. multivorans wild-type + vehicle (DMSO)” value in experiment [2] amounted to 182%. Besides, in experiment [3], the “Effect on survival … (agonists)” value is listed as “significantly increased worm death”.

Turning to `CCCCCC(O)CC(=O)N[C@H]1CCOC1=O` (stereo partly drawn) [3’OH-C8-AHL, reference compound], in experiment [1] (Bm-reporter, agonism dose-response, read-out: EC50), the EC50 is ≥ 980 nM. Moreover, in experiment [1] (Bm-reporter, activity for 100 μM C8-AHL set to 100%, error ±10%), the “Maximal Activation (%)” value was found to be 78%. In addition, the Act% in experiment [1] (Table S4, Bm-reporter, screening conc. 100 μM) was found to be 78%. Also, in experiment [3], the “Effect on survival … (agonists)” value was “did not appear to affect worm survival”.

Take `O=C(CC1CCCC1)N[C@H]1CCOC1=O` [Compound B12]: in experiment [2], the “Swimming motility, area of the colony normalized to B. multivorans wild-type + vehicle (DMSO)” value stood at 53%. In addition, in experiment [3], the “Effect on survival … (antagonists)” value is given as “prolonged nematode survival”.

For the molecule `O=C(CCc1ccc(C(F)(F)F)cc1)N[C@H]1CCOC1=O` [Compound E35], in experiment [1], the concentration for a half-maximal effect (EC50) was 0.022 nM, the activation at 100 µM came out at 98% and the Emax came out at 98%. The “Swimming motility, area of the colony normalized to B. multivorans wild-type + vehicle (DMSO)” value in experiment [2] was 175%.
